Key:
Plutella xylostella = assay: Pesticidal effect on Plutella xylostella by bait crop immersion treatment; type: in vivo; conditions: 48 h, 0.8 ppm alone (Comparative Example 4-2), third-instar larvae, 2 days after, 25° C.
Method: Test Example 1: Pesticidal Effect on Plutella xylostella by Bait Crop Immersion Treatment
To 10 mg of the compound (1) was added 0.2 ml of acetone containing 5% of Tween 20 (product name: SOLGEN (registered trademark) TW-20, manufactured by Dai-ichi Kogyo Seiyaku Co., Ltd.) to cause dissolution, and the solution was diluted with a 5,000-fold diluted solution of a spreading agent (product name: Dine (registered trademark), manufactured by Sumitomo Chemical Garden Products Inc.) to prepare a diluted liquid of the compound (1). […] The cup was stored in a constant temperature breeding room (25° C.), and the number of dead larvae was counted 2 days after, and the mortality was determined by the following equation [1]. […]
(§1) To 10 mg of the compound (13) was added 0.2 ml of acetone containing 5% of Tween 20 (product name: SOLGEN (registered trademark) TW-20, manufactured by Dai-ichi Kogyo Seiyaku Co., Ltd.) to cause dissolution, and the solution was diluted with a 5,000-fold diluted solution of a spreading agent (product name: Dine (registered trademark), manufactured by Sumitomo Chemical Garden Products Inc.) to prepare a diluted liquid of the compound (13). […] The cup was stored in a constant temperature breeding room (25° C.), and the number of dead larvae was counted 2 days after, and the mortality was determined by the above equation [1].

Spodoptera litura = assay: Pesticidal effect on Spodoptera litura by bait crop immersion treatment; type: in vivo; conditions: 48 h, fourth-instar larvae, 2 days after, 25° C.
Method: Mortality (%)=(dead larvae number/tested larvae number)×100 Equation [1]
Test Example 3: Pesticidal Effect on Spodoptera litura by Bait Crop Immersion Treatment
as §1, with “(13) or (15)” for “(13)”, “compound. A commercially available pyriproxyfen emulsifiable concentrate manufactured by Sumitomo Chemical Co., Ltd. under the product name of Lano (registered trademark) emulsifiable concentrate was diluted with a 5,000-fold diluted solution of a spreading agent (product name: Dine (registered trademark), manufactured by Sumitomo Chemical Garden Products Inc.) to prepare a diluted liquid of pyriproxyfen. These diluted liquids were mixed to prepare a test solution of prescribed concentration.” for “compound (13).”

CC(COc1ccc(Oc2ccccc2)cc1)Oc1ccccn1 (racemic) [pyriproxyfen, 4-phenoxyphenyl (RS)-2-(2-pyridyloxy)propyl ether]
mortality at 0.8 ppm (Plutella xylostella): 40%
mortality at 0.2 ppm (Spodoptera litura; 0.2 ppm alone (Comparative Examples 5-2, 7-2)): 30%
mortality at 3.13 ppm (Spodoptera litura; 3.13 ppm alone (Comparative Example 6-2)): 50%
